Assay results reported in PMC11003488 (Journal of Enzyme Inhibition and Medicinal Chemistry, 2023).

Assays:
Experiment in all cases: NCI-60 SRB growth inhibition, one-dose and five-dose
Type in all cases: cell-based
[1] = tested on: MALME-3M; conditions: Homo sapiens
[2] = tested on: PC-3; conditions: Homo sapiens
[3] = tested on: SK-MEL-5; conditions: Homo sapiens
[4] = tested on: SN12C; conditions: Homo sapiens
[5] = tested on: MDA-MB-435; conditions: Homo sapiens
[6] = tested on: HOP-62; conditions: Homo sapiens
[7] = tested on: HOP-92; conditions: Homo sapiens
[8] = tested on: DU-145; conditions: Homo sapiens
[9] = tested on: K-562; conditions: Homo sapiens
[10] = tested on: HT29; conditions: Homo sapiens
[11] = tested on: HCC-2998; conditions: Homo sapiens
[12] = tested on: MCF7; conditions: Homo sapiens
[13] = tested on: NCI-H322M; conditions: Homo sapiens
[14] = tested on: BT-549; conditions: Homo sapiens
[15] = tested on: EKVX; conditions: Homo sapiens
[16] = tested on: A549/ATCC; conditions: Homo sapiens
[17] = tested on: A498; conditions: Homo sapiens
[18] = tested on: NCI-H23; conditions: Homo sapiens
[19] = tested on: SNB-75; conditions: Homo sapiens
[20] = tested on: LOX IMVI; conditions: Homo sapiens
[21] = tested on: UACC-62; conditions: Homo sapiens
[22] = tested on: SK-OV-3; conditions: Homo sapiens
[23] = tested on: NCI-H226; conditions: Homo sapiens
[24] = tested on: NCI-H460; conditions: Homo sapiens
[25] = tested on: KM12; conditions: Homo sapiens
[26] = tested on: SK-MEL-28; conditions: Homo sapiens
[27] = tested on: CAKI-1; conditions: Homo sapiens
[28] = tested on: SR; conditions: Homo sapiens
[29] = tested on: SK-MEL-2; conditions: Homo sapiens, SK-MEL-2, read-out: percent growth inhibition
[30] = tested on: TK-10; conditions: Homo sapiens
[31] = tested on: OVCAR-8; conditions: Homo sapiens, OVCAR-8, read-out: percent growth inhibition
[32] = tested on: T-47D; conditions: Homo sapiens, T47D
[33] = tested on: RPMI-8226; conditions: Homo sapiens
[34] = tested on: MDA-MB-468; conditions: Homo sapiens
[35] = tested on: CCRF-CEM; conditions: Homo sapiens
[36] = tested on: M14; conditions: Homo sapiens
[37] = tested on: U251; conditions: Homo sapiens
[38] = tested on: NCI/ADR-RES; conditions: Homo sapiens
[39] = tested on: 786-0; conditions: Homo sapiens
[40] = tested on: ACHN; conditions: Homo sapiens
[41] = tested on: NCI-H522; conditions: Homo sapiens
[42] = tested on: SW-620; conditions: Homo sapiens
[43] = tested on: SF-268; conditions: Homo sapiens
[44] = read-out: percent growth inhibition

## CC(=O)Nc1ccc(CNc2cccc(C(=O)/C=C/c3cccnc3)c2)cc1 [Compound 5b, (E)-N-(4-(((3–(3-(pyridin-3-yl)acryloyl)phenyl)amino)methyl)phenyl)acetamide]
[1]
  GI50: 2190 nM
[1]; [44]
  inhibition at 10 µM: 132%
[2]; PC-3
  GI50: 3050 nM
[2]; PC-3, read-out: percent growth inhibition
  inhibition at 10 µM: 98.8%
[3]; SK-MEL-5
  GI50: 6510 nM
[3]; SK-MEL-5, read-out: percent growth inhibition
  inhibition at 10 µM: 174%
[4]
  GI50: 2010 nM
[4]; [44]
  inhibition at 10 µM: 124%
[5]; MDA-MB-435
  GI50: 2280 nM
[5]; MDA-MB-435, read-out: percent growth inhibition
  inhibition at 10 µM: 124%
[6]; HOP-62
  GI50: 12700 nM
[6]; HOP-62, read-out: percent growth inhibition
  inhibition at 10 µM: 74%
[7]; HOP-92
  GI50: 8470 nM
[7]; HOP-92, read-out: percent growth inhibition
  inhibition at 10 µM: 68.5%
[8]; DU-145
  GI50: 5150 nM
[8]; DU-145, read-out: percent growth inhibition
  inhibition at 10 µM: 92.2%
[9]; K562
  GI50: 2520 nM
[9]; K562, read-out: percent growth inhibition
  inhibition at 10 µM: 99.8%
[10]; HT-29
  GI50: 2190 nM
[10]; HT-29, read-out: percent growth inhibition
  inhibition at 10 µM: 182%
[11]; HCC 2998
  GI50: 1820 nM
[11]; HCC 2998, read-out: percent growth inhibition
  inhibition at 10 µM: 195%
[12]; MCF7
  GI50: 1380 nM
[12]; MCF7, read-out: percent growth inhibition
  inhibition at 10 µM: 178%
[13]
  GI50: 13700 nM
[13]; [44]
  inhibition at 10 µM: 29.6%
[14]; BT-549
  GI50: 2780 nM
[14]; BT-549, read-out: percent growth inhibition
  inhibition at 10 µM: 174%
[15]
  GI50: 4870 nM
[15]; [44]
  inhibition at 10 µM: 94.2%
[16]; A549
  GI50: 14900 nM
[16]; A549, read-out: percent growth inhibition
  inhibition at 10 µM: 27.8%
[17]; A498
  GI50: 13400 nM
[17]; A498, read-out: percent growth inhibition
  inhibition at 10 µM: 17.5%
[18]; NCI-H23
  GI50: 3220 nM
[18]; NCI-H23, read-out: percent growth inhibition
  inhibition at 10 µM: 148%
[19]; SNB-75
  GI50: 8990 nM
[19]; SNB-75, read-out: percent growth inhibition
  inhibition at 10 µM: 31.8%
[20]
  GI50: 1650 nM
[20]; [44]
  inhibition at 10 µM: 199%
[21]; UACC-62
  GI50: 5030 nM
[21]; UACC-62, read-out: percent growth inhibition
  inhibition at 10 µM: 162%
[22]; SK-OV-3
  GI50: 13900 nM
[22]; SK-OV-3, read-out: percent growth inhibition
  inhibition at 10 µM: 15.2%
[23]; NCI-H226
  GI50: 2760 nM
[23]; NCI-H226, read-out: percent growth inhibition
  inhibition at 10 µM: 116%
[24]; NCI-H460
  GI50: 2870 nM
[24]; NCI-H460, read-out: percent growth inhibition
  inhibition at 10 µM: 107%
[25]; KM12
  GI50: 2250 nM
[25]; KM12, read-out: percent growth inhibition
  inhibition at 10 µM: 162%
[26]; SK-MEL-28
  GI50: 1960 nM
[26]; SK-MEL-28, read-out: percent growth inhibition
  inhibition at 10 µM: 166%
[27]; CAKI-1
  GI50: 12200 nM
[27]; CAKI-1, read-out: percent growth inhibition
  inhibition at 10 µM: 95.9%
[28]
  GI50: 2010 nM
[29]
  inhibition at 10 µM: 52.7%
[30]; TK-10
  GI50: 2530 nM
[30]; TK-10, read-out: percent growth inhibition
  inhibition at 10 µM: 85.3%
[31]
  inhibition at 10 µM: 97.1%
[32]
  GI50: 4140 nM
[32]; [44]
  inhibition at 10 µM: 82%
[33]; RPMI-8226
  GI50: 1920 nM
[33]; RPMI-8226, read-out: percent growth inhibition
  inhibition at 10 µM: 125%
[34]; MDA-MB-468
  GI50: 1670 nM
[34]; MDA-MB-468, read-out: percent growth inhibition
  inhibition at 10 µM: 175%
[35]
  GI50: 2800 nM
[35]; [44]
  inhibition at 10 µM: 141%
[36]; M14
  GI50: 2910 nM
[36]; M14, read-out: percent growth inhibition
  inhibition at 10 µM: 141%
[37]; U-251
  GI50: 1900 nM
[37]; U-251, read-out: percent growth inhibition
  inhibition at 10 µM: 166%
[38]
  GI50: 3120 nM
[38]; [44]
  inhibition at 10 µM: 91.1%
[39]; 786-0
  GI50: 3430 nM
[39]; 786-0, read-out: percent growth inhibition
  inhibition at 10 µM: 160%
[40]
  GI50: 1900 nM
[40]; [44]
  inhibition at 10 µM: 165%
[41]; NCI-H522
  GI50: 1670 nM
[41]; NCI-H522, read-out: percent growth inhibition
  inhibition at 10 µM: 165%
[42]; SW-620
  GI50: 1830 nM
[42]; SW-620, read-out: percent growth inhibition
  inhibition at 10 µM: 169%
[43]; SF-268
  GI50: 13600 nM
[43]; SF-268, read-out: percent growth inhibition
  inhibition at 10 µM: 88.6%
